Reference: US11912693B2, “Compounds for modulating S1P1 activity and methods of using the same” (TREVENA, INC., priority 2017, dated 2024)

Columns and labels:
Format in all cases: cell-based
[1] = biological target: T1, human sphingosine-1-phosphate receptor 1 (S1P1) (Homo sapiens (Human), UniProt P21453); assay: β-Arrestin2 recruitment assay (PathHunter), S1P1 CHO-K1 cells; settings: for hS1P1 B-arrestin2 pEC50: β-arrestin2 recruitment, S1P1 CHO-K1 cells; for Emax: CHO-K1, read-out: hS1P1 B-arrestin2 SPAN
Summary of the method: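 Enzyme-fragment complementation read-out: agonist-driven β-arrestin2 binding to ProLink-tagged human S1P1 in stable CHO-K1 cells restores β-galactosidase, measured 1 h at room temperature after a 60 min 37° C. compound incubation. Potency as pEC50, efficacy relative to fingolimod (SPAN).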
Target sequence in this assay (P21453 whole entry, looked up, the tested form may be a part): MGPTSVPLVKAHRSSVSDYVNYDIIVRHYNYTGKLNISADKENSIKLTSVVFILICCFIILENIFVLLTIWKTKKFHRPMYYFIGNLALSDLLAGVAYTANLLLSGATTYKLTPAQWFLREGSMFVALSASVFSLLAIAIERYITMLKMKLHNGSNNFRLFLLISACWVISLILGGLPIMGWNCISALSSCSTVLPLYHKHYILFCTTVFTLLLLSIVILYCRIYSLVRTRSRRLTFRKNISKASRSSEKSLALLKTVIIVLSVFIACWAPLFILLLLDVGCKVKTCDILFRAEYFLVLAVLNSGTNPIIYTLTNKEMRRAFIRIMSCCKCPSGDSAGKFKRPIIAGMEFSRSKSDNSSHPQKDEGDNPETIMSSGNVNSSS
Target sequence in this assay (P32121 whole entry partner, looked up, the tested form may be a part): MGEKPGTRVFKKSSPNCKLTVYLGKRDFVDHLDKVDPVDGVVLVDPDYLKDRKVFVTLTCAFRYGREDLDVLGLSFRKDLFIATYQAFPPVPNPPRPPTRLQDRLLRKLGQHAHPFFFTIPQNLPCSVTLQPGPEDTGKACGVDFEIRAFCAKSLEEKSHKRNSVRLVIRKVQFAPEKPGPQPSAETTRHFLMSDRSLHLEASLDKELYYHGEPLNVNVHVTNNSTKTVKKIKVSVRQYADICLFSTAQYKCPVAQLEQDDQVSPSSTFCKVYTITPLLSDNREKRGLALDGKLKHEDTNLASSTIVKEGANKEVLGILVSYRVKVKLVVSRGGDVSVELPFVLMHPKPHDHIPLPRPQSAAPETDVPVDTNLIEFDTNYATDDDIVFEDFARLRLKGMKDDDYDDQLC

[2] = biological target: human sphingosine-1-phosphate receptor 2 (S1P2) (Homo sapiens (Human), UniProt O95136); assay: Inositol monophosphate production (IP-one TB kit), S1P2 CHO-K1 cells; settings: for hS1P2 IP-one pEC50: inositol monophosphate accumulation; for Emax: CHO-K1, efficacy normalized to CYM5520, read-out: hS1P2 IP-one SPAN
Chain of human sphingosine-1-phosphate receptor 2 (S1P2) (O95136 whole entry): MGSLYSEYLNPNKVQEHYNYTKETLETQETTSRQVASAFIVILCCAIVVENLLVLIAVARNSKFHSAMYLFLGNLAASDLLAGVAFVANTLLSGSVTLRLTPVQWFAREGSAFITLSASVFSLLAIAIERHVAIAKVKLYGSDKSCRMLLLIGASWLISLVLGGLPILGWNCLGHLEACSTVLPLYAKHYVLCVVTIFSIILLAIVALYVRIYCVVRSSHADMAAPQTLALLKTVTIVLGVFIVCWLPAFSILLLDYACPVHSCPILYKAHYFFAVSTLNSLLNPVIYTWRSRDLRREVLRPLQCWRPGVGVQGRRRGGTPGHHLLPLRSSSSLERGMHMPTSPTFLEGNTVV
Summary of the method: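 Stable CHO-K1 cells expressing EA-β-arrestin2 and Prolink-tagged human S1P2, plated overnight, then exposed to compounds in IP-one stimulation buffer for 60 min at 37 °C. IP1 read by TR-FRET after 1 h at RT. Efficacy (SPAN) normalized to CYM5520; potency as pEC50.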

[3] = biological target: sphingosine-1-phosphate receptor 5 (S1P5) (Homo sapiens (Human), UniProt Q9H228); assay: Inhibition of cAMP production (HTRF), S1P5 CHO-K1 cells; settings: for hS1P5 cAMP pEC50: inhibition of cAMP production; for Emax: CHO-K1, efficacy normalized to fingolimod, read-out: hS1P5 cAMP SPAN
Chain of sphingosine-1-phosphate receptor 5 (S1P5) (Q9H228 whole entry): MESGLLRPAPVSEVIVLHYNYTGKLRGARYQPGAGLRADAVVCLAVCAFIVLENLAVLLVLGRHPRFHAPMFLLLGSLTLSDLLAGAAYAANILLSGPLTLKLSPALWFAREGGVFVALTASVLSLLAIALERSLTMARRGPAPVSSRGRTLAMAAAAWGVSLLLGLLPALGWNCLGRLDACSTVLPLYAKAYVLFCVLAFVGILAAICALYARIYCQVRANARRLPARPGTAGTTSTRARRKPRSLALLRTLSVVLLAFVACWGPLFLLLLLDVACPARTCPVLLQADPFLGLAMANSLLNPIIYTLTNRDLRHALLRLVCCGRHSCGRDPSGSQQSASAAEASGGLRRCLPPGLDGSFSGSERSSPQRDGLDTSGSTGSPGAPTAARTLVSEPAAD

[4] = biological target: T1, human sphingosine-1-phosphate receptor 1 (S1P1); assay: Inhibition of cAMP production (HTRF cAMP HiRange), S1P1 CHO-K1 cells; settings: for hS1P1 cAMP pEC50: inhibition of cAMP production, S1P1 CHO-K1 cells; for Emax: CHO-K1, efficacy (SPAN) normalized to fingolimod, read-out: hS1P1 cAMP SPAN
Summary of the method: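 CHO-K1 cells stably co-expressing human S1P1 (C-terminal Prolink tag) and EA-β-arrestin2 were grown in AssayComplete Media 6 at 37° C. and 5% CO2, plated, and incubated overnight. Agonist-driven inhibition of intracellular cAMP was read by TR-FRET with the HTRF cAMP HiRange kit on a PheraStar reader. Potency is pEC50, and efficacy (SPAN) is normalized to fingolimod.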
Target sequence in this assay (P21453 whole entry, looked up, the tested form may be a part): as the sequence (P21453 whole entry, looked up, the tested form may be a part) above

[5] = efficacy (SPAN) normalized to fingolimod

`COc1ccc(-c2noc(-c3ccc4c(c3)nnn4CC(C)(C)O)n2)c(C)c1` [Compound 26, 1-{5-[3-(4-methoxy-2-methylphenyl)-1,2,4-oxadiazol-5-yl]-1H-1,2,3-benzotriazol-1-yl}-2-methylpropan-2-ol] was tested, and the “hS1P1 B-arrestin2 SPAN” value [1, 5] was under 75, the “hS1P1 B-arrestin2 pEC50” value [1] was over 5 and the “hS1P2 IP-one pEC50” value [2] was under 5.0. The “hS1P5 cAMP pEC50” value [3] was under 5.0 and the “hS1P1 cAMP pEC50” value [4] was over 6.5.
For `Cc1ccccc1-c1nc(-c2ccc3c(c2)nnn3C(C)C)no1` [Compound 99, 3-(1-isopropyl-1H-benzo[d][1,2,3]triazol-5-yl)-5-(o-tolyl)-1,2,4-oxadiazole], the “hS1P1 B-arrestin2 pEC50” value [1] was over 5, the “hS1P2 IP-one pEC50” value [2] was under 5.0 and the “hS1P5 cAMP pEC50” value [3] was under 5.0. For the same molecule, the “hS1P1 cAMP pEC50” value [4] was over 6.5.
For `CCC1(CC)CC(=O)c2cc(-c3nc(-c4cccnc4)no3)ccc2O1` [Compound 103, 2,2-diethyl-6-[3-(pyridin-3-yl)-1,2,4-oxadiazol-5-yl]-3,4-dihydro-2H-1-benzopyran-4-one], the Emax [1, 5] was over 75%, the “hS1P1 B-arrestin2 pEC50” value [1] was over 5 and the Emax [2] was under 50%. The “hS1P2 IP-one pEC50” value [2] was under 5.0, the Emax [3] was under 50% and the “hS1P5 cAMP pEC50” value [3] was under 5.0. The Emax [4] was over 75% and the “hS1P1 cAMP pEC50” value [4] was over 6.5.
With `CCC1(CC)CC(=O)c2cc(-c3nc(-c4cccnc4OC)no3)ccc2O1` [Compound 147, 2,2-diethyl-6-(3-(2-methoxypyridin-3-yl)-1,2,4-oxadiazol-5-yl)chroman-4-one] the Emax [1, 5] was over 75%, the “hS1P1 B-arrestin2 pEC50” value [1] was over 5 and the Emax [2] was under 50%. For the same molecule, the “hS1P2 IP-one pEC50” value [2] was under 5.0, the Emax [3] was under 50% and the “hS1P5 cAMP pEC50” value [3] was over 5.0. For the same molecule, the Emax [4] was over 75% and the “hS1P1 cAMP pEC50” value [4] was over 6.5.
In the case of `CCC1(CC)CC(=O)c2cc(-c3nc(-c4ccncc4OC)no3)ccc2O1` [Compound 212, 2,2-diethyl-6-(3-(3-methoxypyridin-4-yl)-1,2,4-oxadiazol-5-yl)chroman-4-one], the Emax [1, 5] was under 75%, the “hS1P1 B-arrestin2 pEC50” value [1] was over 5 and the Emax [2] was under 50%. For the same molecule, the “hS1P2 IP-one pEC50” value [2] was under 5.0, the Emax [3] was under 50% and the “hS1P5 cAMP pEC50” value [3] was under 5.0. For the same molecule, the Emax [4] was over 75% and the “hS1P1 cAMP pEC50” value [4] was over 6.5.
For `COc1ccccc1-c1nc(-c2ccc3c(c2)nnn3C(C)C)no1` [Compound 287, 3-(1-isopropyl-1H-benzo[d][1,2,3]triazol-5-yl)-5-(2-methoxyphenyl)-1,2,4-oxadiazole], the “hS1P1 B-arrestin2 pEC50” value [1] was over 5, the “hS1P2 IP-one pEC50” value [2] was under 5.0 and the “hS1P5 cAMP pEC50” value [3] was under 5.0. For the same molecule, the “hS1P1 cAMP pEC50” value [4] was over 6.5.
In the case of `Cc1ccccc1-c1noc(-c2ccc3c(c2)nnn3C(C)C)n1` [Compound 293, 5-[3-(2-methylphenyl)-1,2,4-oxadiazol-5-yl]-1-(propan-2-yl)-1H-1,2,3-benzotriazole], the Emax [1, 5] was over 75%, the “hS1P1 B-arrestin2 pEC50” value [1] was over 5 and the Emax [2] was under 50%. For the same molecule, the “hS1P2 IP-one pEC50” value [2] was under 5.0, the Emax [3] was over 50% and the “hS1P5 cAMP pEC50” value [3] was under 5.0. For the same molecule, the Emax [4] was over 75% and the “hS1P1 cAMP pEC50” value [4] was over 6.5.
`CC(C)n1nnc2cc(-c3nc(-c4cccc5c4OCCC5)no3)ccc21` [Compound 304, 3-chroman-8-yl-5-(1-isopropylbenzotriazol-5-yl)-1,2,4-oxadiazole] was tested, and the “hS1P1 B-arrestin2 pEC50” value [1] was over 5, the “hS1P2 IP-one pEC50” value [2] was under 5.0 and the “hS1P5 cAMP pEC50” value [3] was under 5.0. For the same molecule, the “hS1P1 cAMP pEC50” value [4] was over 6.5.
With `CC(C)n1nnc2cc(-c3nc(-c4ccncc4C(F)(F)F)no3)ccc21` [Compound 455, 1-(propan-2-yl)-5-{3-[3-(trifluoromethyl)pyridin-4-yl]-1,2,4-oxadiazol-5-yl}-1H-1,2,3-benzotriazole] the Emax [1, 5] was over 75%, the “hS1P1 B-arrestin2 pEC50” value [1] was over 5 and the Emax [2] was under 50%. For the same molecule, the “hS1P2 IP-one pEC50” value [2] was under 5.0, the Emax [4] was over 75% and the “hS1P1 cAMP pEC50” value [4] was over 6.5.
With `CCC1(CC)CC(=O)c2cc(-c3nc(-c4cn[nH]c4)no3)ccc2O1` [Compound 469, 6-(3-(1H-pyrazol-4-yl)-1,2,4-oxadiazol-5-yl)-2,2-diethylchroman-4-one] the Emax [1, 5] was over 75%, the “hS1P1 B-arrestin2 pEC50” value [1] was over 5 and the Emax [4] was over 75%. For the same molecule, the “hS1P1 cAMP pEC50” value [4] was over 6.5.
